These results are taken from ChEMBL document CHEMBL5291721, “A preclinical secondary pharmacology resource illuminates target-adverse drug reaction associations of marketed drugs” (Nat Commun, 2023).

Assay [1] has as its target Kappa-type opioid receptor (Homo sapiens, UniProt P41145).
The target of another assay is T1, Thromboxane A2 receptor (Homo sapiens, UniProt P21731).
T1 sequence (P21731 whole entry): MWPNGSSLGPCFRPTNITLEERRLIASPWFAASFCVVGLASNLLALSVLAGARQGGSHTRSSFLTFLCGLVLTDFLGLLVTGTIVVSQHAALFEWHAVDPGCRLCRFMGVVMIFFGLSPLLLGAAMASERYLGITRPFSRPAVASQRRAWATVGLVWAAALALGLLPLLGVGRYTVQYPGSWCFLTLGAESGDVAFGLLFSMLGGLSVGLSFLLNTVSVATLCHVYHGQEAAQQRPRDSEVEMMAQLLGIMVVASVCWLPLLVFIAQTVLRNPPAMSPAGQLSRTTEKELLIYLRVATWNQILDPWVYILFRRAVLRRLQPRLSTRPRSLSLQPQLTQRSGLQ

The target in assay [2] is T2, Type-1 angiotensin II receptor (Homo sapiens, UniProt P30556).
T2 sequence (P30556 whole entry): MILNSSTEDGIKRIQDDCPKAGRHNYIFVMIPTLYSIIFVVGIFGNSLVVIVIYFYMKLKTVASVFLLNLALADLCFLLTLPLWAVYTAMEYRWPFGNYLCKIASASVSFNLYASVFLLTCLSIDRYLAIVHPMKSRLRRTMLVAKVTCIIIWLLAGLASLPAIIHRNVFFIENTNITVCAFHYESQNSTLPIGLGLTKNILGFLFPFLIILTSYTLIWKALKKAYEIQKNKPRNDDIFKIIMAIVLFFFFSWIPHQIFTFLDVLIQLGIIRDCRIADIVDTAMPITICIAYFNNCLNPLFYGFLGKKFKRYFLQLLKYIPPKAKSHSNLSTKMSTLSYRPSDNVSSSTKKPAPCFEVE

The target of assay [3] is T3, Neuropeptide Y receptor type 1 (Homo sapiens, UniProt P25929).
T3 sequence (P25929 whole entry): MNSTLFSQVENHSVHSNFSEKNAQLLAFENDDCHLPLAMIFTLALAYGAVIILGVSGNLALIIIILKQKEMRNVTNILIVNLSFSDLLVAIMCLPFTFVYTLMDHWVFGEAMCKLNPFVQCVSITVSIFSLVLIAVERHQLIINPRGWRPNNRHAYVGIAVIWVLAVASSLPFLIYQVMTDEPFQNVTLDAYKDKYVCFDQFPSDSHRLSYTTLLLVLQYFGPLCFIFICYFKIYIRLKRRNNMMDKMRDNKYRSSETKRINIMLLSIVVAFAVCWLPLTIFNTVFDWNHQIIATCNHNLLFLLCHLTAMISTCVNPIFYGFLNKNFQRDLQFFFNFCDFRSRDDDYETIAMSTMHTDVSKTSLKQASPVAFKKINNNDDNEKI

Assay [4] has as its target T4, 5-hydroxytryptamine receptor 2C (Homo sapiens, UniProt P28335).
T4 sequence (P28335 whole entry): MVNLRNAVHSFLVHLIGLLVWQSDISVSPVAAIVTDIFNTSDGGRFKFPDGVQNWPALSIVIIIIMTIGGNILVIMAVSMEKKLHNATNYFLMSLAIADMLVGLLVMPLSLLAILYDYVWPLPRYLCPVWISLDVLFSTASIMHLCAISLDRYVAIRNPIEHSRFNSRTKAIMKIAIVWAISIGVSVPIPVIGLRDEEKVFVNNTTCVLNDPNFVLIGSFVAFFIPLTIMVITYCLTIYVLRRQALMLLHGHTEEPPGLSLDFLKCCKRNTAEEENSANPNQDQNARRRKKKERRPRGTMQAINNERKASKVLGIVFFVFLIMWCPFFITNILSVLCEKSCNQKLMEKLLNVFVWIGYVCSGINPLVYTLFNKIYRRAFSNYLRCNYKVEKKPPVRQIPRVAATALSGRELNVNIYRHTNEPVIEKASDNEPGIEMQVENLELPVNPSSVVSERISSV

Assay [5] addresses Sodium-dependent noradrenaline transporter (Homo sapiens, UniProt P23975).
In assay [6] the target is T5, Alpha-2C adrenergic receptor (Homo sapiens, UniProt P18825).
T5 sequence (P18825 whole entry): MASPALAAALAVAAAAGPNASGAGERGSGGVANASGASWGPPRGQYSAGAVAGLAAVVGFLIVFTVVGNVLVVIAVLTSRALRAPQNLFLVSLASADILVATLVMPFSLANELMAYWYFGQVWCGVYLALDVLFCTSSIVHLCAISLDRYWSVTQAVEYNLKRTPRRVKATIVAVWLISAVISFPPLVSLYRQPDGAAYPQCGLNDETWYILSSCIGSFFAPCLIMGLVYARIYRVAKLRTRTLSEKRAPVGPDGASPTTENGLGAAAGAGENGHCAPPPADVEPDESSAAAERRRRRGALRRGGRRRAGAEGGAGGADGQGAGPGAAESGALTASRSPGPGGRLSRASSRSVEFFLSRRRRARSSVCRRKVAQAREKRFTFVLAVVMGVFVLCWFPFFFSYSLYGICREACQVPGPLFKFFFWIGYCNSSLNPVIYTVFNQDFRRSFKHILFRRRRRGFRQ
The class given is functional.

For the next assay, the target named is D(3) dopamine receptor (Homo sapiens, UniProt P35462).
Assay [7] concerns the target T6, Amine oxidase [flavin-containing] A (Homo sapiens, UniProt P21397).
T6 sequence (P21397 whole entry): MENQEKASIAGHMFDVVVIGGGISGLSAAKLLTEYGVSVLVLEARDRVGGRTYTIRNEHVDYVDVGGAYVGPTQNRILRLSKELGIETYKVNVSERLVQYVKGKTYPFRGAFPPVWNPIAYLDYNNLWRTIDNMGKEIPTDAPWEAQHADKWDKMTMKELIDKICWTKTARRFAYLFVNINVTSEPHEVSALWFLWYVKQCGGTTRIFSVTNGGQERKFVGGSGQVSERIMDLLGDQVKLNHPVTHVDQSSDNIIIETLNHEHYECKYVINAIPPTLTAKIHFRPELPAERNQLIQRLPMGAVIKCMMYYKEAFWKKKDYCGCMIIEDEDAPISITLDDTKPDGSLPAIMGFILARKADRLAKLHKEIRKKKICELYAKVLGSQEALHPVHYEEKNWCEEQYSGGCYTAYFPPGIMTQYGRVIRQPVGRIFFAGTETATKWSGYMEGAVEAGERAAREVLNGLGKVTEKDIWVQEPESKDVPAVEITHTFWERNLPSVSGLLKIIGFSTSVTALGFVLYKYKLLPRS
The class given is functional.

A further assay has as its target Melanocortin receptor 4 (Homo sapiens, UniProt P32245).
Note: assay procedure not described here.

Kappa-type opioid receptor, sequence (P41145 whole entry): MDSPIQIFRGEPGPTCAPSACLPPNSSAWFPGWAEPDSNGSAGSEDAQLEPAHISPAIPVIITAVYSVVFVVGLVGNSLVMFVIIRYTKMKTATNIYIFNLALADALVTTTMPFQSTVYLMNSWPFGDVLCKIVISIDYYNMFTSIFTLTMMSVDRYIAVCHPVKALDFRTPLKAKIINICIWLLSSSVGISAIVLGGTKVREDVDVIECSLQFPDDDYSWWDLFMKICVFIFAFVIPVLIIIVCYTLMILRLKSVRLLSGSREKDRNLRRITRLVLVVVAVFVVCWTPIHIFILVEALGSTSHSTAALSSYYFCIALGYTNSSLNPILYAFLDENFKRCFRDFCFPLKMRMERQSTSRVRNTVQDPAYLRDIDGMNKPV
D(3) dopamine receptor, sequence (P35462 whole entry): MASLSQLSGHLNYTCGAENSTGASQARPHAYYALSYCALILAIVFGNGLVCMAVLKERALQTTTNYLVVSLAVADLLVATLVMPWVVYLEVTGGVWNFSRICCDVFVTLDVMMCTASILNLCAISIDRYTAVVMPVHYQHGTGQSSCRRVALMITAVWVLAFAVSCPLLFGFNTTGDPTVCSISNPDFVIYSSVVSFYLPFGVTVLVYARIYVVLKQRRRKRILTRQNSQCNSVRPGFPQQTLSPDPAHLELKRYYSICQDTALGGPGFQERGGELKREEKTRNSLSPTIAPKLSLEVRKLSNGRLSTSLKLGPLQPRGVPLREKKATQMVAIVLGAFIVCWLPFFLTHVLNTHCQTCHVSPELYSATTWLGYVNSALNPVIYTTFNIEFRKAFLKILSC
Sodium-dependent noradrenaline transporter, sequence (P23975 whole entry): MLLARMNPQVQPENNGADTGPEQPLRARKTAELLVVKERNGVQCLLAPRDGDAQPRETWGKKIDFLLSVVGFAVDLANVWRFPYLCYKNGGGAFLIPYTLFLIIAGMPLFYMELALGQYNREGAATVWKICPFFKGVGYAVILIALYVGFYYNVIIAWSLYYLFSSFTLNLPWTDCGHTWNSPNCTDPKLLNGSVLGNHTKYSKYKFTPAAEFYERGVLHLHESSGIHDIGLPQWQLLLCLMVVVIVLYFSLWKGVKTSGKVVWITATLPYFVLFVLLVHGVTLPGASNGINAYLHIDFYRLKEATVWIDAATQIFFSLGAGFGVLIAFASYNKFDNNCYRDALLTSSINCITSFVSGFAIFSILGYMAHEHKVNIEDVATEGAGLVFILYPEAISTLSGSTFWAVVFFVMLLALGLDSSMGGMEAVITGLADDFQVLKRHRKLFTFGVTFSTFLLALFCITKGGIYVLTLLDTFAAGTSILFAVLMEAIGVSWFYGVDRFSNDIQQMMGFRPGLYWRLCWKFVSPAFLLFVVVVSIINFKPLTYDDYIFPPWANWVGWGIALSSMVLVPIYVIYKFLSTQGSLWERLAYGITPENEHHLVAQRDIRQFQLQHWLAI
Melanocortin receptor 4, sequence (P32245 whole entry): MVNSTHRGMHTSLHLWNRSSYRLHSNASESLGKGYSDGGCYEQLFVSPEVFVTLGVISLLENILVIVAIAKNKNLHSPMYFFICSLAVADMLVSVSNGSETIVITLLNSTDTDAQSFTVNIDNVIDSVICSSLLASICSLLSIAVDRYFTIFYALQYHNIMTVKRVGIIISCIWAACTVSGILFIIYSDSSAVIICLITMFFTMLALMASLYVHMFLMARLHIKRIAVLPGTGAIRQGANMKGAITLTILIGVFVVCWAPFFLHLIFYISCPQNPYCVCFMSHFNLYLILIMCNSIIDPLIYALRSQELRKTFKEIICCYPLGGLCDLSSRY

As usually defined, the AC50 is the concentration giving half of the maximal activity seen. As for `C[C@@H](NCCCc1cccc(C(F)(F)F)c1)c1cccc2ccccc12`, the AC50 in assay [1] is above 30 µM; on Thromboxane A2 receptor, above 30 µM; in assay [2], above 30 µM; in [3] (read-out: AC50) it was above 10 µM; in [4], 0.73 µM; in [5], 7.2 µM. Moreover, the AC50 in assay [6] is 0.83 µM; at D(3) dopamine receptor, 1.5 µM; in assay [7], above 30 µM.

Turning to `OC[C@H]1O[C@@](CO)(O[C@H]2O[C@H](CO)[C@@H](O)[C@H](O)[C@H]2O)[C@@H](O)[C@@H]1O` [SUCROSE], the AC50 (in assay [1]; in [2]; in [3] (read-out: AC50); in assay [4]; in assay [5]; on D(3) dopamine receptor) was above 30 µM throughout. The molecule further had an AC50 in assay [7] above 30 µM.

With `COc1cc2nccc(Oc3ccc(NC(=O)C4(C(=O)Nc5ccc(F)cc5)CC4)cc3)c2cc1OC` [CABOZANTINIB], the concentration at half-maximal activity (AC50) in assay [2] is above 30 µM; in [4] it was above 30 µM; in assay [5], above 30 µM; in assay [6], 26 µM; at D(3) dopamine receptor, above 30 µM; in assay [7] it was above 30 µM.

For the molecule `CC(S)C(=O)NCC(=O)O` (stereo not drawn) [TIOPRONIN], the AC50 (in assay [2]; in [4]; in [5]; in assay [6]; at D(3) dopamine receptor; in [7]) was above 30 µM each time.

For the molecule `CC(C)(C)NCC(O)c1cc(O)cc(O)c1` (stereo not drawn) [TERBUTALINE], the AC50 (at Thromboxane A2 receptor; in assay [2]; in [3] (read-out: AC50); in assay [5]) was above 30 µM each time.

In the case of `CCN(CC)CCNC(=O)c1c(C)[nH]c(/C=C2\C(=O)Nc3ccc(F)cc32)c1C` [SUNITINIB], the half-maximal activity concentration (AC50) in assay [1] was determined as 10.3 µM; at Thromboxane A2 receptor, 9.1 µM; in assay [2] it was 4.3 µM; in [3] it was 6.9 µM; in assay [4] it was 2.25 µM; in [5], 1.76 µM. Besides, the AC50 in [6] was 1.77 µM; at D(3) dopamine receptor, 1.94 µM; in assay [7], above 30 µM.

`CCN1CCN(Cc2ccc(Nc3ncc(F)c(-c4cc(F)c5nc(C)n(C(C)C)c5c4)n3)nc2)CC1` [ABEMACICLIB]: the AC50 (in assay [2]; in assay [4]; in assay [5]; in assay [6]; at D(3) dopamine receptor; in assay [7]) was above 30 µM each time.

Take `CN(CC1(C)CCCO1)S(=O)(=O)c1ccc(Cl)c(S(N)(=O)=O)c1` (stereo not drawn) [MEFRUSIDE]: the AC50 (in assay [1]; in [4]; in assay [6]; at D(3) dopamine receptor; in [7]) was above 30 µM in each case.

As to `CN(C)CC[C@@H](c1ccc(Cl)cc1)c1ccccn1` [DEXCHLORPHENIRAMINE], the AC50 in assay [1] is 12 µM; at Thromboxane A2 receptor, above 30 µM; in [2], above 30 µM; in assay [3] (read-out: AC50) it was above 30 µM; in assay [4], 28 µM; in assay [5] it was 18 µM. Besides, the concentration at half-maximal activity (AC50) (in [6]; at D(3) dopamine receptor; in [7]) was above 30 µM throughout.

On to `C#C[C@]1(O)CC[C@H]2[C@@H]3CCC4=CC(=O)CC[C@@H]4[C@H]3C(=C)C[C@@]21CC` [ETONOGESTREL], for which the half-maximal activity concentration (AC50) in assay [1] is above 30 µM; in assay [4], above 10 µM; in assay [6], above 30 µM; at D(3) dopamine receptor it was above 30 µM; in assay [7], above 30 µM.

On to `CC(=O)O[C@]1(C(C)=O)CC[C@H]2[C@@H]3C=C(C)C4=CC(=O)CC[C@@H]4[C@H]3CC[C@@]21C` [NOMEGESTROL ACETATE], for which the half-maximal activity concentration (AC50) (in assay [1]; on Thromboxane A2 receptor; in assay [4]; in assay [5]; in [6]; on D(3) dopamine receptor) was above 30 µM in each case. Moreover, the AC50 in assay [7] is above 30 µM.

For `C[C@H](CCC(=O)O)[C@H]1CC[C@H]2[C@@H]3[C@@H](O)C[C@@H]4C[C@H](O)CC[C@]4(C)[C@H]3CC[C@]12C` [URSODIOL], the AC50 (in [2]; in assay [4]; in assay [5]; in [6]; at D(3) dopamine receptor; in assay [7]) was above 30 µM in each case.

Regarding `CC(C)c1nc(N(C)S(C)(=O)=O)nc(-c2ccc(F)cc2)c1/C=C/[C@@H](O)C[C@@H](O)CC(=O)O` [ROSUVASTATIN], the concentration at half-maximal activity (AC50) in [1], in assay [2], in assay [3] (read-out: AC50), in assay [4], in assay [5] and in [6] was above 30 µM each time. Besides, the half-maximal activity concentration (AC50) (at D(3) dopamine receptor; in assay [7]) was above 30 µM throughout.

Take `CN(C)CCC[C@@]1(c2ccc(F)cc2)OCc2cc(C#N)ccc21` [ESCITALOPRAM]: the AC50 (in [1]; on Thromboxane A2 receptor; in [2]; in [3] (read-out: AC50); in assay [6]; in assay [7]) was above 30 µM each time.

As to `CN1C[C@H](C(=O)N[C@]2(C)O[C@@]3(O)[C@@H]4CCCN4C(=O)[C@H](Cc4ccccc4)N3C2=O)C=C2c3cccc4[nH]cc(c34)C[C@H]21` [ERGOTAMINE], the AC50 in [2] is above 30 µM; in [4] it was 3.8 µM; in assay [5], above 30 µM; in assay [6] it was 0.14 µM; at D(3) dopamine receptor, 1.6 µM; in assay [7], above 30 µM.

As to `C=C[C@H]1C[N@@]2CC[C@H]1C[C@@H]2[C@@H](O)c1ccnc2ccc(OC)cc12` [QUINIDINE], the AC50 in assay [1] was 4 µM; in [2] it was above 30 µM; on Melanocortin receptor 4, above 30 µM; in assay [3] (read-out: AC50), above 30 µM; in [4], above 10 µM; in assay [5], above 30 µM. Moreover, the figures for the concentration at half-maximal activity (AC50) (in assay [6]; on D(3) dopamine receptor; in assay [7]) were 18 µM, 2.8 µM and above 10 µM, respectively.
